According to ChEMBL document CHEMBL1148870, “Novel inhibitors of VEGF receptors-1 and -2 based on azole-5-carboxamide templates” (Bioorg Med Chem Lett, 2007):

What was measured:
[1] = target: Vascular endothelial growth factor receptor 1 (Homo sapiens, UniProt P17948); test: Inhibition of VEGFR1 assessed as inhibition of phosphorylation in presence of 2 uM ATP by HTRF assay; assay type: functional
[2] = species on record: Homo sapiens; test: Inhibition of Cdk1 at 10 uM; design: scale not given: the % may be the effect or the level left
[3] = target: Hepatocyte growth factor receptor (Homo sapiens) (UniProt P08581); test: Inhibition of cMet at 10 uM; design: scale not given: the % may be the effect or the level left
[4] = target: Cyclin-dependent kinase 2 (Homo sapiens) (UniProt P24941); test: Inhibition of Cdk2 at 10 uM; design: scale not given: the % may be the effect or the level left
[5] = test system: Caco-2; test: Passive diffusion assessed as absorption potential across Caco-2 cell membrane; assay type: ADME, cell-based; details: human
[6] = species on record: Homo sapiens; test: Inhibition of bcr-Abl at 10 uM; design: scale not given: the % may be the effect or the level left
[7] = target: T1, Vascular endothelial growth factor receptor 2 (Homo sapiens, UniProt P35968); test: Inhibition of VEGFR2 assessed as inhibition of phosphorylation in presence of 2 uM ATP by HTRF assay; assay type: functional
[8] = target: RAC-alpha serine/threonine-protein kinase (Homo sapiens) (UniProt P31749); test: Inhibition of PKB/Akt at 10 uM; design: scale not given: the % may be the effect or the level left
RAC-alpha serine/threonine-protein kinase (Homo sapiens), sequence (P31749 whole entry, the tested form may be a part): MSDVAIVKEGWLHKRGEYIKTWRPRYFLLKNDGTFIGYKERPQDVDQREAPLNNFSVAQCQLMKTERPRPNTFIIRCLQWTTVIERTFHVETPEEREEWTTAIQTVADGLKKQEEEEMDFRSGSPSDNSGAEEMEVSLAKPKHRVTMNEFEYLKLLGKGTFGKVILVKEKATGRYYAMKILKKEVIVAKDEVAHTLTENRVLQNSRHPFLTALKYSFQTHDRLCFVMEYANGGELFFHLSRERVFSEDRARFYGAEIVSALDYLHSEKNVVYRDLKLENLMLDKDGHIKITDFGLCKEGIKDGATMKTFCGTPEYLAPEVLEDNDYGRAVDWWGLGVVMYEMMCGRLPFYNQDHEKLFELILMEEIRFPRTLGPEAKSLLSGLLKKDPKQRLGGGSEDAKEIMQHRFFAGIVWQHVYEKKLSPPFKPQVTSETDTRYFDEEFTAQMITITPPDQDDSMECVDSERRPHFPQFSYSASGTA

[9] = Passive diffusion assessed as intrinsic permeability across Caco-2 cell membrane; assay type: ADME, cell-based; details: human, read-out: permeability (converted)
[10] = target: Insulin-like growth factor 1 receptor (Homo sapiens) (UniProt P08069); test: Inhibition of IGF1R at 10 uM; design: scale not given: the % may be the effect or the level left
[11] = target: Receptor tyrosine-protein kinase erbB-2 (Homo sapiens) (UniProt P04626); test: Inhibition of ErbB2/Her2 at 10 uM; design: scale not given: the % may be the effect or the level left
Receptor tyrosine-protein kinase erbB-2 (Homo sapiens), sequence (P04626 whole entry): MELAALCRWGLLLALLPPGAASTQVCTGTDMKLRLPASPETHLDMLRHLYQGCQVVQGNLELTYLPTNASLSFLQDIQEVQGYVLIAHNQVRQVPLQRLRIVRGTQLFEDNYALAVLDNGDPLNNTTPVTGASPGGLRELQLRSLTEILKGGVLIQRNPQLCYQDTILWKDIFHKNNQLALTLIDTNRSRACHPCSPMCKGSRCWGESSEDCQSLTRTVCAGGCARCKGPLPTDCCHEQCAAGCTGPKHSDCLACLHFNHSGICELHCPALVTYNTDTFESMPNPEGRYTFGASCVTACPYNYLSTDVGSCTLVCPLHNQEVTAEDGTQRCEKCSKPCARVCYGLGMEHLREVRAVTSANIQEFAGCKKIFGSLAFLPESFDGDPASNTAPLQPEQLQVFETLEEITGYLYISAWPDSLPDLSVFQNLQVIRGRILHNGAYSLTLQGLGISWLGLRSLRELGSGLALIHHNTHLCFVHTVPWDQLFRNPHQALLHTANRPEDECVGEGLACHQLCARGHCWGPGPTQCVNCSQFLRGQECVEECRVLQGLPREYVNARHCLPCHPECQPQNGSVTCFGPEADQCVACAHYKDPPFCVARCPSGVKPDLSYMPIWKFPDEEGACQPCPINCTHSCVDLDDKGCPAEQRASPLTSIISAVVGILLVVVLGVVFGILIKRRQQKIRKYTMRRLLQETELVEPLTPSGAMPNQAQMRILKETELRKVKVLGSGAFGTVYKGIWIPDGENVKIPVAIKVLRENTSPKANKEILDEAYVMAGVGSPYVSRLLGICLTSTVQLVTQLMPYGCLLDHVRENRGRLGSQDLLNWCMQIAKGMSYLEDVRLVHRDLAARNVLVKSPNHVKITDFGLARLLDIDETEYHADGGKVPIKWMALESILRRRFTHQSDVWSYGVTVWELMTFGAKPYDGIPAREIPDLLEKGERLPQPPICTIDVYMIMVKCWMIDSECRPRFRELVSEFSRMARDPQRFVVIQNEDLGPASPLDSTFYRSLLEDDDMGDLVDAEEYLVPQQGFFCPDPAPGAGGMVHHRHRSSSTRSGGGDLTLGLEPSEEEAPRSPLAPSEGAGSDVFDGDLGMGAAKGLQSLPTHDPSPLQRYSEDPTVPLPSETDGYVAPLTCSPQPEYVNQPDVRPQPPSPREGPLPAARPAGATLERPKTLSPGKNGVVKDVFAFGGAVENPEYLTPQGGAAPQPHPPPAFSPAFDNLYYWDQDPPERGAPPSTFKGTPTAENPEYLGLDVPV

[12] = target: Receptor-type tyrosine-protein kinase FLT3 (Homo sapiens) (UniProt P36888); test: Inhibition of Flt3 at 10 uM; design: scale not given: the % may be the effect or the level left
Receptor-type tyrosine-protein kinase FLT3 (Homo sapiens), sequence (P36888 whole entry): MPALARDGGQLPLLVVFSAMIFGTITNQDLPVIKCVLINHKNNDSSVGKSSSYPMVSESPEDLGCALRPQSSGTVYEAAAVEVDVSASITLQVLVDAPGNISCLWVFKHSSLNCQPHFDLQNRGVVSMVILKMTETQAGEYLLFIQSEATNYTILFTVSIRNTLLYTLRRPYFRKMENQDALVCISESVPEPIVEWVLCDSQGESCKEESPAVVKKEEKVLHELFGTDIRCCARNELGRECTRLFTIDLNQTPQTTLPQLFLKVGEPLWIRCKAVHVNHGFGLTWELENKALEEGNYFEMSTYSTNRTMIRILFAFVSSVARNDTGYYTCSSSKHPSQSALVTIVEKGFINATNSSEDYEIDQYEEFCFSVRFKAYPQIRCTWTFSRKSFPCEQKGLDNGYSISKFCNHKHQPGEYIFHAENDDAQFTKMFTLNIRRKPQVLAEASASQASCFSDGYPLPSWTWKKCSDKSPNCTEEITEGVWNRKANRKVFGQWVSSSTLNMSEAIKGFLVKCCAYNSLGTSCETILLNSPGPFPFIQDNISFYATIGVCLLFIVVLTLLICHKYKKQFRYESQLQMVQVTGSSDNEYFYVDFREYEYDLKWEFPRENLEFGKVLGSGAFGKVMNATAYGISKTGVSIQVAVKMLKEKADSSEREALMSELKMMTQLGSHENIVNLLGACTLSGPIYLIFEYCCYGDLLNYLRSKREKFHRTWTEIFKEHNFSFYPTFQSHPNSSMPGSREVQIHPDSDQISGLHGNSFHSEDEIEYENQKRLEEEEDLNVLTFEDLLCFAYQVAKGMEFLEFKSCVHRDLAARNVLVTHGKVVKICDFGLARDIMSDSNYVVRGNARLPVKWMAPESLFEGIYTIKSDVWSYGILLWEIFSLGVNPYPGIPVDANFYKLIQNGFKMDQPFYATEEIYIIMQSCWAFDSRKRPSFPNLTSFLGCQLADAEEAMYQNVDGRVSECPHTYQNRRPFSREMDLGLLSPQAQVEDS

[13] = target: Fibroblast growth factor receptor 1 (Homo sapiens) (UniProt P11362); test: Inhibition of FGFR1 at 10 uM; design: scale not given: the % may be the effect or the level left
[14] = target: Epidermal growth factor receptor (Homo sapiens) (UniProt P00533); test: Inhibition of ErbB1 at 10 uM; design: scale not given: the % may be the effect or the level left
Epidermal growth factor receptor (Homo sapiens), sequence (P00533 whole entry): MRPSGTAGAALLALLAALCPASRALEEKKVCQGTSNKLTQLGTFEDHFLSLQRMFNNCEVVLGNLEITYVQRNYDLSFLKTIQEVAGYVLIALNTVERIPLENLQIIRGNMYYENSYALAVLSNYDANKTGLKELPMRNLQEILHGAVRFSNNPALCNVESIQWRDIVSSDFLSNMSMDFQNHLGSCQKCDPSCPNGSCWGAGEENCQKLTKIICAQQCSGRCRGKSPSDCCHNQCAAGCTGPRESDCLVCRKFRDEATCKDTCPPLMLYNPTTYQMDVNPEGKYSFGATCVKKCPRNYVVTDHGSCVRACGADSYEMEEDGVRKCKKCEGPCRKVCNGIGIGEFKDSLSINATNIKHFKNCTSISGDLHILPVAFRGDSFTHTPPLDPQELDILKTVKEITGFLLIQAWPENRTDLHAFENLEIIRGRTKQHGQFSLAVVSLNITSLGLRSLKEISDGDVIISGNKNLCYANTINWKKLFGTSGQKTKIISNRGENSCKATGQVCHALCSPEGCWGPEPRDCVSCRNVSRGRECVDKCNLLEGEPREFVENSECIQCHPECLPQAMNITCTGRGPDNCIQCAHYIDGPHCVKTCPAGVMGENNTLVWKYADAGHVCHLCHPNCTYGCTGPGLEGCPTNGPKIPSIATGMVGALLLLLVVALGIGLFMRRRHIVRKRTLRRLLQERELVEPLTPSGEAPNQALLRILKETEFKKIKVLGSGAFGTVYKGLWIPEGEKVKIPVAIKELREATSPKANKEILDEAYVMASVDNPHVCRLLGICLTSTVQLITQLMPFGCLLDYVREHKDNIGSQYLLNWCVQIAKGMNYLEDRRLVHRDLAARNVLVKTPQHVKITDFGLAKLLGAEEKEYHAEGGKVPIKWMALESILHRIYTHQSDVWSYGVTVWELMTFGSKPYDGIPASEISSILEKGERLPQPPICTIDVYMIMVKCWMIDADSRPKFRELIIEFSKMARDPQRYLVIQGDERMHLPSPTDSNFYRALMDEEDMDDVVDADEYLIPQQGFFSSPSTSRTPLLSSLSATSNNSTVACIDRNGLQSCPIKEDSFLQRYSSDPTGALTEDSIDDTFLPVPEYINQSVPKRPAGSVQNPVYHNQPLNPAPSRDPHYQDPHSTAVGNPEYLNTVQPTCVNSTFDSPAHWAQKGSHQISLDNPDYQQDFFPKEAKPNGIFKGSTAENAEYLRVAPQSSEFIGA

[15] = target: Vascular endothelial growth factor receptor 3 (Homo sapiens) (UniProt P35916); test: Inhibition of Flt4 at 10 uM; design: scale not given: the % may be the effect or the level left
[16] = target: Glycogen synthase kinase-3 beta (Homo sapiens) (UniProt P49841); test: Inhibition of GSK3-beta at 10 uM; design: scale not given: the % may be the effect or the level left
Glycogen synthase kinase-3 beta (Homo sapiens), sequence (P49841 whole entry, looked up): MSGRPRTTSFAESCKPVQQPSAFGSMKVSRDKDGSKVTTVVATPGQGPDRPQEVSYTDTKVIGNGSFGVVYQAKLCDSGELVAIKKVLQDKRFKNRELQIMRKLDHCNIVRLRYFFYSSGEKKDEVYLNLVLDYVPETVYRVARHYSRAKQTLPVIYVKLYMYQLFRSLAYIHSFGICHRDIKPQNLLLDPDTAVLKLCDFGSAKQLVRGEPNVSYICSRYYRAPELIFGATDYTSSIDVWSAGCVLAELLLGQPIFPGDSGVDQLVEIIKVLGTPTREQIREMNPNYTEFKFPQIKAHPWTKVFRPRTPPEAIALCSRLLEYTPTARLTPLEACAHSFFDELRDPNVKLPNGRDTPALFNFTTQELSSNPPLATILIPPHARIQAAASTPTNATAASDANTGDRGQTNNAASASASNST

[17] = species on record: Homo sapiens; test: Inhibition of InR at 10 uM; design: scale not given: the % may be the effect or the level left
[18] = species on record: Homo sapiens; test: Inhibition of PKA at 10 uM; design: scale not given: the % may be the effect or the level left
[19] = target: T1, Vascular endothelial growth factor receptor 2; test: Inhibition of VEGFR2 assessed as inhibition of phosphorylation in human 293 cells by cell-based ELISA; assay type: functional, HEK293
[20] = target: RAF proto-oncogene serine/threonine-protein kinase (Homo sapiens) (UniProt P04049); test: Inhibition of Raf1 at 10 uM; design: scale not given: the % may be the effect or the level left
RAF proto-oncogene serine/threonine-protein kinase (Homo sapiens), sequence (P04049 whole entry): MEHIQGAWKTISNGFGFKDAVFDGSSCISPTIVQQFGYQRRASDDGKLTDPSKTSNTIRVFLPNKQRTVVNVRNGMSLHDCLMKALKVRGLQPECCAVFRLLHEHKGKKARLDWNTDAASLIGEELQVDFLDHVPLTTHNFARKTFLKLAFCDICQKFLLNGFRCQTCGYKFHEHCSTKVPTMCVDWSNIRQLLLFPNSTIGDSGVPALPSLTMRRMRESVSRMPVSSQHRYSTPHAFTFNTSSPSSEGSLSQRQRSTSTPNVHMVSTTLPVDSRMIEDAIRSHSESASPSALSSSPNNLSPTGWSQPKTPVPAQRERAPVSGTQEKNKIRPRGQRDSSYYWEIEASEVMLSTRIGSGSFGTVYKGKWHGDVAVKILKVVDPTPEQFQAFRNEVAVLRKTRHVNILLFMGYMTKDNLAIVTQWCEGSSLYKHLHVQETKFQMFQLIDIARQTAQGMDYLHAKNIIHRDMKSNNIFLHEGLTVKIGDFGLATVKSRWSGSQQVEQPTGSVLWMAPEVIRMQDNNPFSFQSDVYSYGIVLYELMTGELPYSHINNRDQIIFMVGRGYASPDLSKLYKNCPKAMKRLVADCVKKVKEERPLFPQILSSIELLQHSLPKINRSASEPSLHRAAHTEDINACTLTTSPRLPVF

[21] = target: T1, Vascular endothelial growth factor receptor 2; test: Displacement of [32P]ATP from human VEGFR2 after 45 mins

Structure (SMILES)	IC50 [1] [nM]	Activity [2] [%]	Activity [3] [%]	Activity [4] [%]	Activity [5]	Activity [6] [%]	Activity [8] [%]	Papp [9] [×10⁻⁶ cm/s]	Activity [10] [%]	Activity [11] [%]	Activity [12] [%]	Activity [13] [%]	Activity [14] [%]	Activity [15] [%]	Activity [16] [%]	Activity [17] [%]	Activity [18] [%]	IC50 [19] [nM]	Activity [20] [%]	IC50 [7] [nM]	other results
O=C(Nc1cccc(OC(F)(F)Cl)c1)c1ccnn1CCc1ccncc1	320	> 30	> 30	> 30	Active	> 30	> 30	4.73	> 30	> 30	> 30	> 30	< 30	> 30	> 30	> 30	> 30	21	> 30	–	Ki [7]: 70 nM; Ki [21]: 90 nM
CC(C)c1ccc(NC(=O)c2ccnn2CCc2ccncc2)cc1	440	> 30	> 30	> 30	Active	> 30	> 30	8.18	> 30	> 30	> 30	> 30	< 30	> 30	> 30	> 30	> 30	53	> 30	74	–
O=C(Nc1ccc(Cl)cc1)c1ccnn1CCc1ccncc1	97	> 30	> 30	> 30	Active	> 30	> 30	6.95	> 30	> 30	> 30	> 30	< 30	> 30	> 30	> 30	> 30	90	> 30	77	Ki [7]: 110 nM; Ki [21]: 90 nM
CCc1ccc(NC(=O)c2ccnn2CCc2ccncc2)cc1	220	> 30	> 30	> 30	Active	> 30	> 30	9.7	> 30	> 30	> 30	> 30	< 30	> 30	> 30	> 30	> 30	86	> 30	120	–
O=C(Nc1ccc(C(F)(F)F)cc1)c1ccnn1CCc1ccncc1	380	> 30	> 30	> 30	Active	> 30	> 30	6.42	> 30	> 30	> 30	> 30	< 30	> 30	> 30	> 30	> 30	48	> 30	69	–
O=C(Nc1ccc(OC(F)(F)F)cc1)c1cc2ccccc2n1CCc1ccncc1	> 10000	> 30	> 30	> 30	–	> 30	> 30	–	> 30	> 30	> 30	> 30	< 30	> 30	> 30	> 30	> 30	> 10000	> 30	> 10000	–
COc1ccc(CCn2nccc2C(=O)Nc2ccc(Cl)cc2)cc1OC	> 10000	> 30	> 30	> 30	–	> 30	> 30	–	> 30	> 30	> 30	> 30	< 30	> 30	> 30	> 30	> 30	> 10000	> 30	> 10000	–
